{"source": "patent US8765808B2", "about": "“Treatment or prevention of cancer and precancerous disorders” (CHS Pharma, Inc., priority 2005, dated 2014)", "key": {"[1]": {"system": "cancer cells", "assay": "Constant non-toxic TBHP with escalating sulindac (FIG. 16), cancer cells", "type": "cell-based", "conditions": "escalating sulindac 500 μM-1500 μM"}, "[2]": {"system": "Normal HEK skin cells (human neonatal epidermal keratinocytes)", "assay": "Intracellular ROS by indicator dye fluorescence, normal HEK skin cells", "protocol": "Experimental conditions: Normal HEK skin cells plated onto 6-well plates at cell density of 60-70% confluence. Sulindac (0.5 mM)×24 hours (cell density remained about the same) followed by TBHP×2 hours followed by ROS indicator dye (5 μM)×1 hour (Table 1).\nHuman neonatal epidermal keratinocytes were plated into 6-well plates at a cell density of 60-70% confluence. The cultures were pretreated with sulindac (500 uM) for 34 hours followed by the addition of different concentrations of TBHP for 2 hours. During this period of time, the cell density in the 6-well plates remained the same (there was no increase in cell proliferation). This was followed by the addition of the ROS indicator dye."}, "[3]": {"system": "WM-266-4 Melanoma skin cell line", "assay": "MTS cell viability after pretreatment and oxidative stress, melanoma cells", "type": "cell-based, human", "conditions": "500 μM sulindac 24 hr pretreatment, then TBHP 2 hr (FIG. 8)"}, "[4]": {"system": "Lung cancer cells", "assay": "Intracellular ROS levels, lung cancer cells", "type": "cell-based", "conditions": "combination of sulindac and TBHP vs either treatment alone"}, "[5]": {"system": "SCC-25 squamous cell skin cancer cell line", "assay": "MTS cell viability after pretreatment and oxidative stress, SCC skin cancer cells", "type": "cell-based, human", "conditions": "sulindac alone, concentrations below 1 mM, MTS assay"}, "[6]": {"system": "Primary neonatal rat cardiac myocytes", "assay": "Killing by peroxide after sulindac, normal cardiac cells", "type": "cell-based", "conditions": "sulindac followed by peroxide (hydrogen peroxide and TBHP)", "description": "(§1) Primary neonatal rat cardiac myocytes and ARPE-19, a human retinal pigment epithelial cell line that is not fully transformed, were used in similar experiments with sulindac followed by peroxide."}, "[7]": {"system": "CCD-18Co normal human colon cell line", "assay": "MTS cell viability after sulindac pretreatment and TBHP, normal colon cells", "type": "cell-based", "conditions": "500 μM sulindac 24 hr, then TBHP 2 hr (FIG. 11)", "method": "(§2) The cells were maintained in minimum essential medium (Eagle) supplemented with 2 mM L-glutamine, Earle's BSS containing 1.5 g/L sodium bicarbonate, 0.1 mM non-essential amino acids, 1.0 mM sodium pyruvate and 10% fetal bovine serum."}, "[8]": {"system": "normal cells", "assay": "Constant non-toxic TBHP with escalating sulindac (FIG. 16), normal cells", "type": "cell-based", "conditions": "escalating sulindac 500 μM-1500 μM"}, "[9]": {"system": "MRC-5 normal human lung cell line", "assay": "MTS cell viability after sulindac pretreatment and TBHP, normal lung cells", "type": "cell-based", "conditions": "500 μM sulindac 24 hr, then TBHP 2 hr (FIG. 12)", "method": "as §2"}, "[10]": {"system": "SCC-25 squamous cell skin cancer cell line", "assay": "MTS cell viability after pretreatment and oxidative stress, SCC skin cancer cells", "type": "cell-based, human", "conditions": "500 μM sulindac 24 hr pretreatment, then TBHP 2 hr (FIG. 1)", "method": "SCC-25 is a human squamous cell carcinoma cell line developed by J G Rheinwald [Rheinwald, 1981]. […] The cells were maintained in minimum essential medium (Eagle) supplemented with 2 mM L-glutamine, Earle's BSS containing 1.5 g/L sodium bicarbonate, 0.1 mM non-essential amino acids, 1.0 mM sodium pyruvate and 10% fetal bovine serum.\nThe experimental approach was to pretreat SCC cells with sulindac for 24 hr prior to exposure to TBHP for 2 hr. Sulindac (Sigma; S-8139) was freshly prepared as a 1M stock solution in 1M Tris.Cl, pH 8.0. SCC cells were suspended in culture medium containing 10% fetal bovine serum at a cell density of 6×10^5 cells/ml. Cell suspensions containing 500 μM sulindac or no sulindac (Control) were plated in 96 well microtiter plates with a total of 6×10^4 cells per well. The plates were incubated for 24 hr at 37° C. in a 5% CO2 incubator. The culture medium was then removed and the cells washed once with fresh culture medium without serum. After removal of the wash solution, fresh culture medium without serum that contained the indicated final concentration of TBHP was added to the cells for 2 hrs. Serum was omitted from the medium during the two-hour exposure to TBHP since TBHP may be rapidly depleted in the presence of serum."}, "[11]": {"system": "SCC skin cancer cells", "assay": "Intracellular ROS by indicator dye fluorescence, SCC skin cancer cells", "protocol": "SCC skin cancer cells were plated onto 6-well plates at a cell density of 50-60% confluence. The cultures were pretreated with sulindac (500 uM) for 24 hours followed by the addition of TBHP (100 uM) for two hours. During this period of time, the cell density in the 6-well plates increased to 80-90% confluent."}, "[12]": {"system": "ARPE-19, a human retinal pigment epithelial cell line", "assay": "Killing by peroxide after sulindac, retinal cells", "type": "cell-based", "conditions": "sulindac followed by peroxide (hydrogen peroxide and TBHP)", "description": "as §1"}, "[13]": {"system": "lung carcinoma cell line designated A549", "assay": "MTS cell viability after pretreatment and oxidative stress, lung cancer cells", "protocol": "Cell viability was determined by the [sequence] 96®-Aqueous One Cell Proliferation Assay (Promega) according to the manufacturer's instructions. The assay utilizes a novel tetrazolium compound (3-(4,5-dimethylthiazol-2-yl)-5-(3-carboxymethoxyphenyl)-2-(4-sulfophenyl)-2H-tetrazolium; MTS) and an electron-coupling reagent (phenazine ethosulfate; PES). Metabolically active cells convert the MTS to a water-soluble formazan by the action of cellular dehydrogenases. The amount of formazan produced is measured by absorbance at 490 nm using a colorimetric microtiter plate reader (BIORAD; Model 2550). Absorbance is directly proportional to the number of viable cells.\nExperiments using similar methods were performed with a lung carcinoma cell line designated A549. […] Cells were grown in Ham's F12K medium supplemented with final concentrations of 2 mM L-glutamine, 1.6 g/L sodium bicarbonate and 10% fetal bovine serum. Cultures were maintained between 6×10^3-6×10^4 cells/cm^2 in standard tissue culture flasks. The protocol for pretreatment of cells with 500 μM sulindac followed by a two hour exposure to various concentrations of TBHP was the same as that described for the RKO colon cancer cells.\nFollowing a 24 hr pretreatment with 500 μM sulindac, the cells were washed once to remove the excess sulindac before exposure to TBHP for 2 hr."}, "[14]": {"system": "precancerous growths and/or BCC's", "assay": "Topical sulindac gel followed by hydrogen peroxide solution in patients", "conditions": "applied alone to the skin condition"}, "[15]": {"assay": "Time course of sulindac pre-incubation before addition of the oxidant", "type": "cell-based", "method": "Sulindac was pre-incubated for various times prior to the addition of the oxidant. […] There was no difference in the results with longer time courses such as 48-72 hours. After the pre-incubation with sulindac, the cells were washed and the oxidant was added with or without sulindac."}, "[16]": {"system": "Normal lung cells", "assay": "Intracellular ROS levels, normal lung cells", "type": "cell-based", "conditions": "combination of sulindac and TBHP"}, "[17]": {"system": "RKO colon cancer cell line", "assay": "MTS cell viability after pretreatment and oxidative stress, RKO colon cancer cells", "type": "cell-based, human", "conditions": "500 μM sulindac 24 hr pretreatment, then TBHP 2 hr (FIG. 4)", "method": "RKO is a human colon carcinoma cell line developed by Michael Brattain [Brattain, 1984]. […] The cells were maintained in minimum essential medium (Eagle) supplemented with 2 mM L-glutamine, Earle's BSS containing 1.5 g/L sodium bicarbonate, 0.1 mM non-essential amino acids, 1.0 mM sodium pyruvate and 10% fetal bovine serum.\nExperiments were performed with the RKO colon cancer cells that were pretreated with 500 μM sulindac using TBHP."}, "[18]": {"system": "normal human epidermal keratinocytes", "assay": "Cell viability after sulindac pretreatment and oxidative stress, normal keratinocytes", "type": "cell-based", "method": "Experiments using similar methods were performed with primary human neonatal foreskin epidermal keratinocytes. These cells were of low-passage and purified using previously accepted protocols (provided by J. Li, University of Miami, Fl.). Cells were grown in 50% Keratinocyte-SFM media [Gibco-Invitrogen (Catalog #17005-042) supplemented with human recombinant Epidermal Growth Factor 1-53 (EGF 1-53) and Bovine Pituitary Extract (BPE)] with 50% EpiLife medium [Cascade Biologics (Catalog #Epi-500-Ca)] supplemented with purified bovine serum albumin, purified bovine transferrin, hydrocortisone, recombinant human insulin-like growth factor type-1 (rhIGF-1), prostaglandin E2 (PGE2), and recombinant human epidermal growth factor (rhEGF).\nNormal human epidermal keratinocyte cells were incubated for 24 hr in the presence or absence of 500 μM sulindac. The medium was removed and the cells washed once with fresh medium followed by addition of medium containing the indicated concentration of (a) TBHP or (b) arsenic trioxide. After a 2 hr incubation with TBHP or a 24-hour incubation with arsenic trioxide at 37° C., the cells were assayed for viability as described."}}, "note": "Entries after “also recorded” stand apart in the source; their conditions may differ.", "data": [{"smiles": "CC1=C(CC(=O)O)c2cc(F)ccc2/C1=C\\c1ccc([S+](C)[O-])cc1", "note": "(racemic) [sulindac, Sulindac]", "values": [{"measurement": "effect on cancer cells", "setting": "[1]", "value": "enhanced killing"}, {"measurement": "% Cells with ROS Uptake by Fluorescence", "setting": "[2]; Table 1, Sul alone, 0.5 mM 24 hours", "value": 2, "unit": "%"}, {"measurement": "% Cells containing ROS", "setting": "[2]; Table 4, Sul 500 uM alone", "value": 2, "unit": "%"}, {"measurement": "level of ROS uptake in normal HEK cells when combined with TBHP", "setting": "[2]; sulindac combined with TBHP vs sulindac or TBHP alone", "value": "no significant effect"}, {"measurement": "killing of Melanoma cells by TBHP", "setting": "[3]", "value": "enhanced the killing"}, {"measurement": "intracellular ROS levels, lung cancer cells", "setting": "[4]", "value": "significantly higher levels of ROS"}, {"measurement": "toxicity of sulindac: effect on cell viability", "setting": "[5]", "value": "no detectable effect on cell viability"}, {"measurement": "killing of normal cardiac cells by peroxide", "setting": "[6]", "value": "no enhanced killing"}, {"measurement": "effect on oxidative stress by TBHP, normal colon cells", "setting": "[7]", "value": "provided protection from oxidative stress"}, {"measurement": "effect on normal cells", "setting": "[8]", "value": "protective effect"}, {"measurement": "effect on oxidative stress by TBHP, normal lung cells", "setting": "[9]", "value": "provided protection from oxidative stress"}, {"measurement": "killing of SCC carcinoma cells by TBHP", "setting": "[10]", "value": "enhanced the killing"}, {"measurement": "% Cells with ROS Uptake by Fluorescence", "setting": "[11]; Table 2, Sul 0.5 mM 24 hours and/or TBHP 100 μM 2 hours", "value": 3, "unit": "%"}, {"measurement": "% Cells containing ROS", "setting": "[11]; Table 3, Sul 500 μM 24 hours and/or TBHP 100 μM 2 hours", "value": 3, "unit": "%"}, {"measurement": "number of spindle cells in the culture", "setting": "[11]; compared to untreated controls", "value": "tends to increase the number of spindle cells"}, {"measurement": "ROS uptake in SCC skin cancer cells, sulindac in combination with TBHP", "setting": "[11]; sulindac 0.5 mM 24 hours then TBHP 100 μM 2 hours", "value": "geometrically enhances the levels of ROS uptake"}, {"measurement": "ROS levels in SCC skin cancer cells, agent alone", "setting": "[11]; sulindac 500 uM or TBHP 100 uM alone", "value": "enhances the levels of ROS uptake; also recorded: enhanced the ROS levels"}, {"measurement": "killing of retinal cells by peroxide", "setting": "[12]", "value": "no enhanced killing"}, {"measurement": "cell viability of lung cancer cells after exposure to TBHP", "setting": "[13]; 500 μM sulindac 24 hr pretreatment, then TBHP 2 hr (FIG. 6)", "value": "marked decrease in cell viability"}, {"measurement": "sensitivity of lung cancer cells to killing by H2O2", "setting": "[13]; 500 μM sulindac pretreatment (FIG. 7)", "value": "differentially sensitive to killing"}, {"measurement": "viability of cells pretreated with sulindac", "setting": "[13]; 1.5-2.0 mM TBHP, 2 hr, 500 μM sulindac pretreatment", "value": "at background levels"}, {"measurement": "killing effect in all cancer cell studies", "setting": "[13]; FIG. 15, 500 μM sulindac, 250 μM sulindac sulfone", "value": "most potent killing effect"}, {"measurement": "H2O2 range in which difference in viability is highly significant (P<0.001)", "setting": "[13]; sulindac-treated vs untreated cells", "value": "2.5 to 5.0", "unit": "mM"}, {"measurement": "effect on the precancerous or cancerous growth when applied alone", "setting": "[14]", "value": "no effect"}, {"measurement": "minimum pre-incubation time with sulindac to see an effect", "setting": "[15]", "value": "≥ 6", "unit": "h"}, {"measurement": "pre-incubation time with sulindac giving optimum effects", "setting": "[15]", "value": "18 to 24", "unit": "h"}, {"measurement": "intracellular ROS levels, normal lung cells", "setting": "[16]", "value": "lower levels of ROS"}, {"measurement": "killing of RKO carcinoma cells by TBHP", "setting": "[17]", "value": "enhanced the killing"}, {"measurement": "viability of normal human epidermal keratinocytes, TBHP", "setting": "[18]; 500 μM sulindac 24 hr, then TBHP 2 hr (FIG. 10A)", "value": "no significant effect"}, {"measurement": "viability of normal human epidermal keratinocytes, arsenic trioxide", "setting": "[18]; 500 μM sulindac 24 hr, then arsenic trioxide 24 hr (FIG. 10B)", "value": "no significant effect"}, {"measurement": "TBHP concentrations with protective effect (enhanced resistance to oxidative stress)", "setting": "[18]; in combination with sulindac, effect lost above 400 μM TBHP", "value": "50 to 400", "unit": "µM"}]}]}
